Our source for the IC50 values is patent US7846945B2, “Piperdine-based inhibitors of sodium glucose co-transporter 2 and methods of their use” (Lexicon Pharmaceuticals, Inc., priority 2007, dated 2010).

In this experiment the target is T1, Human sodium/glucose co-transporter type 2 (SGLT2) (Homo sapiens, UniProt P31639).
T1 construct: HA; expressed in transfected cells
T1 sequence (P31639 1-672): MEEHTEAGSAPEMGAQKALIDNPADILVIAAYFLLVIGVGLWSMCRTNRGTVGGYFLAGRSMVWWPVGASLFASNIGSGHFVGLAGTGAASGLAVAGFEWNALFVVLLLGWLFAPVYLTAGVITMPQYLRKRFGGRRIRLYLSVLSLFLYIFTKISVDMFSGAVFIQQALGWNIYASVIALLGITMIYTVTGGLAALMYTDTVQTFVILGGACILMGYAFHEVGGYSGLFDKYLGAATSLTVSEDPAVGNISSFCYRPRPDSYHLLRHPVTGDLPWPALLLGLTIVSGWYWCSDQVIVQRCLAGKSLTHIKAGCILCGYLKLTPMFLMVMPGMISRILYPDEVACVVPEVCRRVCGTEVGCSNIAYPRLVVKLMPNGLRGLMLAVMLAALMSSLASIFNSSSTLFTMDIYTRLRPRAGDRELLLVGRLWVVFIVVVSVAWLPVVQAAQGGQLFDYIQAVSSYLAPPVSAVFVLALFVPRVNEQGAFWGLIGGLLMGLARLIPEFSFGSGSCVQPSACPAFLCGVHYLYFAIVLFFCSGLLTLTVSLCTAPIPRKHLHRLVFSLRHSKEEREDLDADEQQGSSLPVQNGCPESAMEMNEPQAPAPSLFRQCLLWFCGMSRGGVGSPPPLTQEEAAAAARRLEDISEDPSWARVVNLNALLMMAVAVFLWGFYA
Description: In vitro human SGLT2 inhibition assay (14C-AMG uptake). Type of experiment: cell-based. The following applies: HEK293 cells expressing human HA-SGLT2; potent = SGLT2 IC50 of less than about 500 nM; read-out: SGLT2 IC50 (potent SGLT2 inhibitor mark). As to the method:
HEK293 cells were transfected with the human HA-SGLT2-pIRESpuro2 vector and the bulk stable cell line was selected in presence of 0.5 μg/ml of puromycin. Human HA-SGLT2 cells were maintained in DMEM media containing 10% FBS, 1% GPS and 0.5 μg/ml of puromycin.
The HEK293 cells expressing the human HA-SGLT2 were seeded in 384 well plates (30,000 cells/well) in DMEM media containing 10% FBS, 1% GPS and 0.5 μg/ml of puromycin, then incubated overnight at 37 C, 5% CO2. Cells were then washed with uptake buffer (140 mM NaCl, 2 mM KCl, 1 mM CaCl2, 1 mM MgCl2, 10 mM HEPES, 5 mM Tris, 1 mg/ml bovine serum albumin (BSA), pH 7.3). Twenty microliters of uptake buffer with or without testing compounds were added to the cells. Then, 20 microliters of uptake buffer containing ^14C-AMG (100 nCi) were added to the cells. The cell plates were incubated at 37° C., 5% CO2 for 1-2 hours. After washing the cells with uptake buffer, scintillation fluid was added (40 microliters/well) and ^14C-AMG uptake was measured by counting radioactivity using a scintillation coulter (TopCoulter NXT; Packard Instruments).
The IC50 of a compound with regard to a given target is determined by fitting the relevant data, using the Levenburg Marquardt algorithm, to the equation: y=A+((B−A)/(1+((C/x)^D))) wherein A is the minimum y value; B is the maximum y value; C is the IC50; and D is the slope.
Usually IC50 stands for the concentration needed to halve the response being measured. Regarding `CCOc1ccc(Cc2cccc([C@@H]3OC(OC)[C@@H](O)[C@H](O)[C@H]3O)c2)cc1` (stereo partly drawn) [(2S,3R,4R,5S)-2-[3-(4-Ethoxy-benzyl)-phenyl]-6-methoxy-tetrahydro-pyran-3,4,5-triol], the IC50 is under 500 nM.
The value for `COC1O[C@@H](c2ccc(Cl)c(Cc3ccc(Oc4ccncc4)cc3)c2)[C@H](O)[C@@H](O)[C@@H]1O` (stereo partly drawn) [(2S,3R,4R,5S)-2-{4-Chloro-3-[4-(pyridin-4-yloxy)-benzyl]-phenyl}-6-methoxy-tetrahydro-pyran-3,4,5-triol] was under 500 nM; that for `CCOc1ccc(Cc2cc([C@@H]3O[C@H](SCCO)[C@@H](O)[C@H](O)[C@H]3O)ccc2Cl)cc1` [(2S,3R,4R,5S,6R)-2-[4-Chloro-3-(4-ethoxy-benzyl)-phenyl]-6-(2-hydroxy-ethylsulfanyl)-tetrahydro-pyran-3,4,5-triol] was under 500 nM.
With `CCOc1ccc(Cc2cc([C@@H]3OC(OC)[C@@H](O)[C@H](O)[C@H]3O)ccc2C)cc1` (stereo partly drawn) [(2S,3R,4R,5S)-2-[3-(4-Ethoxy-benzyl)-4-methyl-phenyl]-6-methoxy-tetrahydro-pyran-3,4,5-triol] the figure was under 500 nM; with `COC1O[C@@H](c2ccc(Cl)c(Cc3ccc(Oc4cncnc4)cc3)c2)[C@H](O)[C@@H](O)[C@@H]1O` (stereo partly drawn) [(2S,3R,4R,5S)-2-{4-Chloro-3-[4-(pyrimidin-5-yloxy)-benzyl]-phenyl}-6-methoxy-tetrahydro-pyran-3,4,5-triol], under 500 nM; with `CCOc1ccc(Cc2cc([C@@H]3O[C@H](SCCNC(C)=O)[C@@H](O)[C@H](O)[C@H]3O)ccc2Cl)cc1` [N-(2-{(2R,3S,4R,5R,6S)-6-[4-Chloro-3-(4-ethoxy-benzyl)-phenyl]-3,4,5-trihydroxy-tetrahydro-pyran-2-ylsulfanyl}-ethyl)-acetamide], under 500 nM.
As for `CCOc1ccc(Cc2cc(C3NC(CO)[C@@H](O)[C@H](O)[C@H]3O)ccc2Cl)cc1` (stereo partly drawn) [(3S,4R,5R)-2-[4-Chloro-3-(4-ethoxy-benzyl)-phenyl]-6-hydroxymethyl-piperidine-3,4,5-triol], the IC50 was under 500 nM.
With `COC1O[C@@H](c2ccc(Cl)c(Cc3ccc(OCCOCc4ccccc4)cc3)c2)[C@H](O)[C@@H](O)[C@@H]1O` (stereo partly drawn) [(2S,3R,4R,5S)-2-{3-[4-(2-Benzyloxy-ethoxy)-benzyl]-4-chloro-phenyl}-6-methoxy-tetrahydro-pyran-3,4,5-triol], the IC50 was under 500 nM.
With `C=CCNC(=O)N1C[C@@H](O)[C@H](O)[C@@H](O)[C@@H]1c1ccc(Cl)c(Cc2ccc(OCC)cc2)c1` [(2S,3S,4S,5R)-2-[4-Chloro-3-(4-ethoxy-benzyl)-phenyl]-3,4,5-trihydroxy-piperidine-1-carboxylic acid allyl amide] the figure was under 500 nM.
Consider `CCOc1ccc(Cc2cc([C@@H]3O[C@H](SCCC(C)C)[C@@H](O)[C@H](O)[C@H]3O)ccc2Cl)cc1` [(2S,3R,4R,5S,6R)-2-[4-Chloro-3-(4-ethoxy-benzyl)-phenyl]-6-(3-methyl-butylsulfanyl)-tetrahydro-pyran-3,4,5-triol], for which the IC50 was under 500 nM.
For the compound `CCOc1ccc(Cc2cc([C@@H]3O[C@H](SC[C@H](N)C(=O)O)[C@@H](O)[C@H](O)[C@H]3O)ccc2Cl)cc1` [(R)-2-Amino-3-{(2R,3S,4R,5R,6S)-6-[4-chloro-3-(4-ethoxy-benzyl)-phenyl]-3,4,5-trihydroxy-tetrahydro-pyran-2-ylsulfanyl}-propionic acid], the concentration for half-maximal inhibition (IC50) was under 500 nM.
The value for `COc1ccc(Sc2cc([C@@H]3OC(OC)[C@@H](O)[C@H](O)[C@H]3O)ccc2Cl)cc1` (stereo partly drawn) [(2S,3R,4R,5S)-2-[4-Chloro-3-(4-methoxy-phenylsulfanyl)-phenyl]-6-methoxy-tetrahydro-pyran-3,4,5-triol] was under 500 nM; that for `COC1O[C@@H](c2ccc(Cl)c(Cc3ccc(Oc4nccs4)cc3)c2)[C@H](O)[C@@H](O)[C@@H]1O` (stereo partly drawn) [(2S,3R,4R,5S)-2-{4-Chloro-3-[4-(thiazol-2-yloxy)-benzyl]-phenyl}-6-methoxy-tetrahydro-pyran-3,4,5-triol] was under 500 nM.
